Results on 27 compounds are retold here after US11921105B2, “Method for identifying positive allosteric modulators for odorant receptors” (FIRMENICH SA, priority 2017, dated 2024).

The target of the first experiment is T1, OR5AN1 (Homo sapiens, UniProt Q8NGI8).
T1 construct: FLAG (N); Rho (first 20 aa of bovine rhodopsin) (N); expressed in transfected cells
T1 sequence (Q8NGI8 1-311): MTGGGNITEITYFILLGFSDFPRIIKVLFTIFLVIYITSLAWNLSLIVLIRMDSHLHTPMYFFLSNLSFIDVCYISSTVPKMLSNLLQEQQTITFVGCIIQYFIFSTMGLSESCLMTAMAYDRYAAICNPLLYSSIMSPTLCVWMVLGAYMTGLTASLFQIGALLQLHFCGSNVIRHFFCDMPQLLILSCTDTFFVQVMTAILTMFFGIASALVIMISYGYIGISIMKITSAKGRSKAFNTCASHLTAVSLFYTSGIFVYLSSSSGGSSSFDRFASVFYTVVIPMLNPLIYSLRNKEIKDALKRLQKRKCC
As to the kind of experiment: OR5AN1 MUSCENONE® dose-response at serial enhancer concentrations, allosteric EC50 shift model. As to conditions: enhancer 0 to 1 mM. It is filed as cell-based. As for the experimental part:
The level of enhancement of OR5AN1's activation was evaluated at distinct concentrations of the enhancer. […] The curves were obtained by applying the simplified Allosteric EC50 shift effect equation (available in Prism5, v. 5.02) derived from the ternary complex interaction model. The enhancement levels recorded were not linearly dependent on the concentration of the enhancer, and the following key parameters values for a (the cooperativity factor) and KB (the equilibrium dissociation constant of TDA) obtained from the model: α=15.7 and KB=259 μM. α>1 is indicative of positive allosteric modulation.
For the compound `CCCCCCCC=CC=O` [Hit 2-decenal, 2-decenal], the “α (cooperativity factor)” value came to 37.3.
For the compound `CCCCCC/C=C/C=O` [Nonylenic aldehyde], the “α (cooperativity factor)” value is 28.8.

The same experiment, now with this note: enhancer 0 to 1 mM, read-out: KB (equilibrium dissociation constant).
Turning to `CCCCCCCC=CC=O` [Hit 2-decenal, 2-decenal], the Kb stood at 264 µM.
As for `CCCCCC/C=C/C=O` [Nonylenic aldehyde], the Kb worked out at 96 µM.

For another experiment, the target named is T2, OR5AN1 olfactory receptor (Homo sapiens, UniProt Q8NGI8).
T2 construct: FLAG (N); Rho (first 20 aa of bovine rhodopsin) (N); expressed in transfected cells
T2 sequence (Q8NGI8 1-311): T1 sequence (Q8NGI8 1-311)
Briefly: OR5AN1 dose-response of musk agonist with and without modulator, and of candidate alone (EC50 shift, span). It is filed as cell-based. Conditions: 250 μM of each compound. As for the experimental part: 15 candidates, marked as “enhancement” in Table 2 were identified. Strikingly, 80% of these putative enhancers (12/15) belonged to the same class of chemicals: unsaturated aliphatic aldehydes. Next, two parallel dose-response experiments to confirm the true enhancement properties of the potential candidates were performed. First, a dose-response of each individual candidate was performed to determine if it was an agonist by itself. Second, a MUSCENONE® dose-response curve in the presence and absence of a 250 μM concentration of the putative modulator was assessed for EC50 shifts.
Dose response curves to MUSCENONE® were obtained in the presence of 250 μM of each compound and compared to a dose-response curve of MUSCENONE® alone. The resulting enhancement was quantified by means of EC50-fold shift (potency increase) and the efficacy span ratio (efficacy increase).
The EC50-fold shift was obtained by […]. The span ratio was obtained by dividing the span of MUSCENONE®+compound by the reference span of MUSCENONE® alone. Specifically, diverse aliphatic α-β mono- or poly-unsaturated molecules have been compared.
With `C=CCCCCCCCCC(=O)O` [undecenoic acid], the “enhancement of OR5AN1 MUSCENONE® response (SAR)” value is “absence of enhancement”.

In another experiment the test system is human panelists. As to the kind of experiment: Human MUSCENONE® odor detection threshold (ODT), forced-choice triangle tests with background odor. Format: in vivo. As to conditions: background compound at 0.1%; 2/3 correct responses. As for the experimental part:
Sensitivity of human individuals to MUSCENONE® was evaluated by performing an odor detection threshold (ODT) test. The ODT test consisted of identifying the concentration for which 50%, preferably 66%, of the panelists are able to determine which of three containers contains the target compound MUSCENONE® in a forced-choice triangle tests. Two tests were performed to calculate the ODT in mixtures containing MUSCENONE® plus a perceivable background odor of chemically similar molecules a) the enhancer tridecylenic aldehyde and b) the non-enhancing volatile compound, nonanal.
27 panelists were given a series of triangle tests with increasing concentration of MUSCENONE® in the presence of nonanal at a concentration of 0.1%. Within each triangle test, the three samples contained nonanal at 0.1% and one sample also contained MUSCENONE®. In each triangle test, the panelists were asked to identify the one sample that was different from the other two samples. The ODT was calculated by fitting a non-linear regression model onto the data and calculating the MUSCENONE® concentration at which the proportion of correct responses was equal to 2/3 (66%, the midpoint between chance rate 1/3 and all correct answers 1). […]
Take `CCCCCCCCC=O` [nonanal, reference compound]: the “MUSCENONE® ODT value when mixed with the compound” value is 0.93%.

For a further experiment, the target named is T3, OR10J5 olfactory receptor (Homo sapiens, UniProt Q8NHC4, R233W).
T3 construct: Lucy (cleavable leucine-rich signal peptide) (N); FLAG (N); Rho (first 20 aa of bovine rhodopsin) (N); expressed in transfected cells
T3 sequence (Q8NHC4 1-309 R233W): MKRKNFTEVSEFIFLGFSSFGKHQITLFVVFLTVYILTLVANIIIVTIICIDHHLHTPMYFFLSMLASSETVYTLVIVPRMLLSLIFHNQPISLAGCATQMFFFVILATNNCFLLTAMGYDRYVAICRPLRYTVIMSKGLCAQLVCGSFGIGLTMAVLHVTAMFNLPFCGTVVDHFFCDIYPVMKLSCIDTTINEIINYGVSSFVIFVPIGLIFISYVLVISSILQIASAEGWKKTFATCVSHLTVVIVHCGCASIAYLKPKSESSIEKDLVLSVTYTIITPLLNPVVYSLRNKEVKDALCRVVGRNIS
Briefly: Single point binary mixture screen (LYRAL® + test compound) for OR10J5 activity enhancement. It is filed as cell-based. Conditions: LYRAL® 4.6 and test compound 300 μM; numbered by decreasing OR10J5 activity (span). An excerpt:
The Lucy-Flag-Rho-tagged receptor is co-transfected with the olfactory canonical G-protein Golf and exposed to a binary mixture of a single concentration of a floral muguet compound and a test compound.
A dose response curve showing the activation of OR10J5 in response to the floral muguet compound […], 4-(4-hydroxy-4-methylpentyl)cyclohex-3-ene-1-carbaldehyde or a mixture thereof (sold under the tradename LYRAL®, hereinafter referred to as “LYRAL®”) is shown in FIG. 15. Using a cell-based assay, OR10J5 activity was tested in a HEK293T cell line wherein the endogenous chaperone RTP1 gene has been activated and the odorant receptor chaperone was expressed according to the methods disclosed in International Patent Application Publication No. WO2016/201153 A1. The Flag-Rho-tagged receptor was co-transfected with the olfactory canonical G-protein Golf and was exposed to a binary mixture of a single concentration of LYRAL® and a test compound.
A library of volatile compounds was used to create binary mixtures of each compound with LYRAL® at approximately EC20, a concentration eliciting only approximately 20% of full activity level of OR10J5 by itself. An activation cell-based assay was used for the initial enhancer candidate identification. Single binary mixture-induced receptor activity was detected by measuring the cAMP increase in the cytosol using an HTRF (Homogenous Time-Resolved Fluorescence unit) based kit (CisBio, cAMP dynamic 2 kit, 62AM4PEJ).
800 binary mixtures were created by mixing a LYRAL® stock solution with a stock solution of each test compound to a final concentration 4.6 and 300 μM, respectively. Stock solutions were made of compounds dissolved in pure DMSO. Each mixture was presented to a cell line expressing the OR10J5 olfactory receptor. The final concentration of DMSO in each binary mixture was 0.1%, and had no visible effect on the cells (see FIG. 16).
The resulting activation was then measured and compared to LYRAL® alone (defining the baseline of the enhancement assay). The quality of the HTS process was determined and the window variability and signal reliability were assessed by calculating the Z′ value of each plate. […] These OR10J5 olfactory receptor agonists further confirmed that the dynamic range of the assay window was sufficient (as the responses recorded were well above baseline) and thus likely sensitive enough to detect even low levels of putative enhancement.
Consider `CCc1occc(=O)c1O` [Hit 40], for which the “Hit Type” value is recorded as “Enhancement”.
Same read-out and setting: next, `CC(C)=CCCC(C)C=O` (stereo not shown) [Hit 27]: “Enhancement”; `CCCCCCCCC=O` [Hit 33]: “Enhancement”.
`CCCCCC=O` [Hit 24]: the “Hit Type” value is “Enhancement”.
Same read-out and setting: next, `Cc1ccc(CC(C)C=O)cc1` (stereo not shown) [Hit 36]: “Enhancement”.
Regarding `CCCCCC/C=C/C=O` [Hit 44], the “Hit Type” value is recorded as “Enhancement”.
Same read-out and setting: next, `CCc1ccc(C=O)cc1` [Hit 41]: “Enhancement”.
On the same count and under the same terms, for `CC/C=C\CCCCC=O` [Hit 23] the value was “Enhancement”.
Take `C=CC(C)CCCC(C)(C)O` (stereo not shown) [Hit 34]: the “Hit Type” value is listed as “Agonist”.
The same measure, in the same setting: for `C[C@@H](CC=O)CCCC(C)(C)O` [Hit 25] the value was “Agonist”; for `COC(C)(C)CCCC(C)C=O` (stereo not shown) [Hit 43], “Enhancement”.
On the same count and under the same terms, next, `CCCCCCC1CCCC(=O)O1` (stereo not shown) [Hit 35]: “Enhancement”; `CCCCC/C=C/C=C/C=O` [Hit 32]: “Enhancement”.
The same measure, in the same setting: next, `CC1=CC(C)C(C=O)C(C)C1` (stereo not shown) [Hit 39]: “Enhancement”; `O=Cc1ccc2c(c1)OCO2` [Hit 37]: “Enhancement”; `C[C@@H]1CC[C@H]2[C@H](C)C(=O)O[C@@H]2C1` [Hit 42]: “Enhancement”.
Consider `O=Cc1ccccc1` [Hit 28], for which the “Hit Type” value is “Enhancement”.
On the same count and under the same terms, for `CC(C)=CCCC1=CCC(C)(C=O)CC1` (stereo not shown) [Hit 26] the value was “Enhancement”.

A further experiment has as its target T4, OR10J5 (Homo sapiens, UniProt Q8NHC4, R233W).
T4 construct: Lucy (cleavable leucine-rich signal peptide) (N); FLAG (N); Rho (first 20 aa of bovine rhodopsin) (N); expressed in transfected cells
T4 sequence (Q8NHC4 1-309 R233W): T3 sequence (Q8NHC4 1-309 R233W)
As to the kind of experiment: OR10J5 (+−)-2,5-dimethyl-2-indanmethanol dose-response with test compound. Format: cell-based.
Conditions: not given
The protocol: OR10J5 activity enhancement was tested with an additional agonist and with one of the test compounds and conditions described in the Examples above. Dose response curves to (+−)-2,5-dimethyl-2-indanmethanol was obtained in the presence of a steady concentration of the test compound and compared to a dose-response curve of the agonist alone. The resulting enhancement was quantified by means of EC50-fold shift (potency increase) and the efficacy span ratio (efficacy increase) as described above.
On to `Cc1ccc2c(c1)CC(C)(CO)C2` (racemic) [(+−)-2,5-dimethyl-2-indanmethanol, reference compound], for which the “agonist type on OR10J5” value is reported as “partial agonist”.

The same experiment, now with this note: within the dynamic range of the dose response.
As to `CC(C=O)Cc1ccc2c(c1)OCO2` (stereo not shown) [heliopropanal], the “efficacy increase of (+−)-2,5-dimethyl-2-indanmethanol” value is listed as 1.7 fold.

The target of the next experiment is T4, OR10J5. As to the kind of experiment: OR10J5 LYRAL® dose-response at serial enhancer concentrations, allosteric EC50 shift model. Format: cell-based.
Conditions: not given
As for the experimental part: Functional dose-response experiments were performed to reveal the allosteric nature of the interaction between heliopropanal, 3-(4-methylcyclohex-3-en-1-yl)butanal, melonal and heptanal and OR10J5. The level of enhancement of OR10J5's activation was evaluated at distinct concentrations of each enhancer. Using the same cell-based assay described earlier, dose response curves of OR10J5 to LYRAL® in the presence of serial concentrations of the enhancers spanning from 0 to 600 μM were performed, see FIG. 19. The curves were obtained by applying the simplified Allosteric EC50 shift effect equation (available in Prism7) derived from the ternary complex interaction model. The enhancement levels recorded were not linearly dependent on the concentration of the enhancer, and the following key parameters values for α (the cooperativity factor) and KB (the equilibrium dissociation constant of the enhancer) were obtained from the model for each enhancer: heliopropanal, α=6.3 and KB=10 μM; 3-(4-methylcyclohex-3-en-1-yl)butanal, α=7.5 and KB=15 μM; melonal, α=4.1 and KB=16 μM; and heptanal; α=3.2 and KB=51 μM. α>1 is indicative of positive allosteric modulation.
Consider `CC(C=O)Cc1ccc2c(c1)OCO2` (stereo not shown) [heliopropanal], for which the Kb turned out to be 10 µM.

Staying with this experiment, now noted: LYRAL®; enhancer 0 to 600 μM.
As to `CCCCCCC=O` [Heptanal], the “α (cooperativity factor)” value is on record as 3.2.
Same read-out and setting: next, `CC(C)=CCCC(C)C=O` (stereo not shown) [melonal]: 4.1.
In the case of `CC(C=O)Cc1ccc2c(c1)OCO2` (stereo not shown) [heliopropanal], the “α (cooperativity factor)” value is 6.3.
Consider `CC1=CC[C@H](C(C)CC=O)CC1` (stereo partly shown) [3-(4-methylcyclohex-3-en-1-yl)butanal], for which the “α (cooperativity factor)” value was found to be 7.5.

Still in this experiment, the particulars now being: LYRAL®; enhancer 0 to 600 μM; read-out: KB (equilibrium dissociation constant of the enhancer).
`CCCCCCC=O` [Heptanal]: the Kb is 51 µM.
Same read-out and setting: for `CC(C)=CCCC(C)C=O` (stereo not shown) [melonal] the value was 16 µM; for `CC1=CC[C@H](C(C)CC=O)CC1` (stereo partly shown) [3-(4-methylcyclohex-3-en-1-yl)butanal], 15 µM.
